From the kinase profiling compilation of Christmann-Franck et al. (2016)

Experiments:
Assay in all cases: KINOMEscan competition binding
Conditions in all cases: compound 10.0 µM; call rule not given here
[1] = target: EPHA2 (human) (UniProt P29317)
[2] = target: TNK1 (human) (UniProt Q13470)
[3] = target: PRKAA2 (human) (UniProt P54646)
[4] = target: FLT1 (human) (UniProt P17948)
[5] = target: RPS6KA4 KD1 (human) (UniProt O75676)
[6] = target: CSNK1E (human) (UniProt P49674)
[7] = target: SRPK1 (human) (UniProt Q96SB4)
[8] = target: GSK3A (human) (UniProt P49840)
[9] = target: TESK1 (human) (UniProt Q15569)
[10] = target: AKT1 (human) (UniProt P31749)
[11] = target: MAP4K1 (human) (UniProt Q92918)
[12] = target: ERBB2 (human) (UniProt P04626)
[13] = target: LCK (human) (UniProt P06239)
[14] = target: FLT3 (human) (UniProt P36888)
Chain of FLT3 (human) (P36888 whole entry, looked up): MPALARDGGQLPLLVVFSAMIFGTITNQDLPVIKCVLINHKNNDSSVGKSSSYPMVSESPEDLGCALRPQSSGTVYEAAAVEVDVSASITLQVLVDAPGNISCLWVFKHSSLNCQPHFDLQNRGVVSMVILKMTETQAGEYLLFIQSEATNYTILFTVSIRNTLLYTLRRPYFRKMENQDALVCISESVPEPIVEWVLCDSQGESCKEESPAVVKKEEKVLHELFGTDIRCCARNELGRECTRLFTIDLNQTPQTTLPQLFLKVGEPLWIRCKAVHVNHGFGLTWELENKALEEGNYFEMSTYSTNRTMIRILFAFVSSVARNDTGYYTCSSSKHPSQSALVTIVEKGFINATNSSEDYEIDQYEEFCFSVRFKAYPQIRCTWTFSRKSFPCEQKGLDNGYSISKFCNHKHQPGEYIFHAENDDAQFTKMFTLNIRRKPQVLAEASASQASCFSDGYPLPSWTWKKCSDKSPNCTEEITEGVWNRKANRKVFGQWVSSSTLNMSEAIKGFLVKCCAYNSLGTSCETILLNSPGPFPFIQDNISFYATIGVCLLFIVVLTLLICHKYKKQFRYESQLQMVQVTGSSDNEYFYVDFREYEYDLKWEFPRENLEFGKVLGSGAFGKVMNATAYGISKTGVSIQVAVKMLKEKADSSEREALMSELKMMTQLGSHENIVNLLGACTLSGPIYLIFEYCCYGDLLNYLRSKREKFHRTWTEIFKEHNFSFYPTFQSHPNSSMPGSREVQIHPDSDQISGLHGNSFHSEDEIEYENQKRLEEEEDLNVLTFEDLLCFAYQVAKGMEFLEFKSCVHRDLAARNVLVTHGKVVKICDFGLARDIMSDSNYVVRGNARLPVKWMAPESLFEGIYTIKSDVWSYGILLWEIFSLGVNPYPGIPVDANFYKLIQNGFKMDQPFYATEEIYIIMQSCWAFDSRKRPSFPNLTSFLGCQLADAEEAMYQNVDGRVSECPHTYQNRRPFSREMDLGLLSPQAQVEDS

[15] = target: CAMKK1 (human) (UniProt Q8N5S9)
[16] = target: MST4 (human) (UniProt Q9P289)
[17] = target: FER (human) (UniProt P16591)
[18] = target: MAPK3 (human) (UniProt P27361)
Chain of MAPK3 (human) (P27361 whole entry, looked up): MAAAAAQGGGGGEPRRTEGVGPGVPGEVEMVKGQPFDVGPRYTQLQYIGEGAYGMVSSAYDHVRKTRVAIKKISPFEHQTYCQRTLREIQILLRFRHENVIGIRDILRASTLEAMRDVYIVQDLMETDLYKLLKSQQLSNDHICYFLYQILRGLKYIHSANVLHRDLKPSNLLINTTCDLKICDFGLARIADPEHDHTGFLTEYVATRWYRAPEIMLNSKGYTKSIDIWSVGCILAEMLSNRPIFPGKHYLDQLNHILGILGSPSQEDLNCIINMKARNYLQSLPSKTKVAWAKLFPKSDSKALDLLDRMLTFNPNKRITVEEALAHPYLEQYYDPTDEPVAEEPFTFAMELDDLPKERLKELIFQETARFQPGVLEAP

[19] = target: AURKC (human) (UniProt Q9UQB9)
[20] = target: BMP2K (human) (UniProt Q9NSY1)
[21] = target: PAK6 (human) (UniProt Q9NQU5)
[22] = target: STK17B (human) (UniProt O94768)
Chain of STK17B (human) (O94768 whole entry, looked up): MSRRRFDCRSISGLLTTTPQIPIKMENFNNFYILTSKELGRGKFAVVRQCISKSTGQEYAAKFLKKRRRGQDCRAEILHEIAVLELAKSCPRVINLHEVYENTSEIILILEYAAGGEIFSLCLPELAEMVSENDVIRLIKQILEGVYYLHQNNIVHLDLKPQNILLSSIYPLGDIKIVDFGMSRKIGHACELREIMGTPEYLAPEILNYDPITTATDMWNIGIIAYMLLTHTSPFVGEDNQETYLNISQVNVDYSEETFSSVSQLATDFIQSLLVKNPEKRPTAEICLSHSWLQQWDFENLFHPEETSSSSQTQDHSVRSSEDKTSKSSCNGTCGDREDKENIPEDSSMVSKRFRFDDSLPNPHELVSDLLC

[23] = target: AURKB (human) (UniProt Q96GD4)
[24] = target: ITK (human) (UniProt Q08881)
[25] = target: CAMK1G (human) (UniProt Q96NX5)
Chain of CAMK1G (human) (Q96NX5 whole entry, looked up): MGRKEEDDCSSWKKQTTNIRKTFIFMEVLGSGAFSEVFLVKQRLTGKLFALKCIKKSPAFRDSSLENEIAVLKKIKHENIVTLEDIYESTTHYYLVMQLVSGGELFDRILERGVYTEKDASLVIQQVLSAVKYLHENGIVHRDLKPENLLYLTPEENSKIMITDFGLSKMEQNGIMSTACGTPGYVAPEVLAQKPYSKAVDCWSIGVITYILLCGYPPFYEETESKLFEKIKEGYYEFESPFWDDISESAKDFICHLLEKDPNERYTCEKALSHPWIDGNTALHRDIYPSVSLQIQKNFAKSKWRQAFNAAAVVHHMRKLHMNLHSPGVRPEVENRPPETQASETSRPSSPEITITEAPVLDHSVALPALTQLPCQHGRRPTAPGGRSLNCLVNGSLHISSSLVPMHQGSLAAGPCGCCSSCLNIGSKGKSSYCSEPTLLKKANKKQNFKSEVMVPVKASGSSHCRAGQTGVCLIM

[26] = target: FES (human) (UniProt P07332)
[27] = target: PDPK1 (human) (UniProt O15530)
[28] = target: EPHB3 (human) (UniProt P54753)
Chain of EPHB3 (human) (P54753 whole entry, looked up): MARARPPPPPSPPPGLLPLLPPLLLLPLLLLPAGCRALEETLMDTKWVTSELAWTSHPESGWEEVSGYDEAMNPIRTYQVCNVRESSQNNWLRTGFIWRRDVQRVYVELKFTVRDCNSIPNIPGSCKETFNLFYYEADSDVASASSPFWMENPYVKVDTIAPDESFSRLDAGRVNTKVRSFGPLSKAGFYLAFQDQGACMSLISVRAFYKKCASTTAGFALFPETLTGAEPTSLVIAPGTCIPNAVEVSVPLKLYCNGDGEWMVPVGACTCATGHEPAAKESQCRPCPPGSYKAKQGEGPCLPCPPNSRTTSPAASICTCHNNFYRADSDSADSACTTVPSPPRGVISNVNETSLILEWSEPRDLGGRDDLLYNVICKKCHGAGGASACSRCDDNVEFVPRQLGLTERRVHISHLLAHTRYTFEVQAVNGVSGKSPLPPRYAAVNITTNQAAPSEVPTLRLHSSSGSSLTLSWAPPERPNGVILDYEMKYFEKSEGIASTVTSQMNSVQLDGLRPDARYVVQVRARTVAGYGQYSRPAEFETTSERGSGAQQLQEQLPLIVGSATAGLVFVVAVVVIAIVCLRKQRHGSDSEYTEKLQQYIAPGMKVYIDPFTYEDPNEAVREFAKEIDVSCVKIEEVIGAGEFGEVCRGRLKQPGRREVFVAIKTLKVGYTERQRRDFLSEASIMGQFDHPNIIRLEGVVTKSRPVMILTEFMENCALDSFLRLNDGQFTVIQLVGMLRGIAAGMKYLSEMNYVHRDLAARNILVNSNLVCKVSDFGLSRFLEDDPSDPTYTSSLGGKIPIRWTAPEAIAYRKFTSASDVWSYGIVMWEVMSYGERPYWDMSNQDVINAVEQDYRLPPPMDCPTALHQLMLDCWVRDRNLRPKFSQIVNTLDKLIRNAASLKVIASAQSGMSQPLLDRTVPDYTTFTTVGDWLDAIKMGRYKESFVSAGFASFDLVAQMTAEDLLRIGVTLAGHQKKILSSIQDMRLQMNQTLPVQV

[29] = target: RAF1 (human) (UniProt P04049)
[30] = target: BMX (human) (UniProt P51813)
[31] = target: STK24 (human) (UniProt Q9Y6E0)
[32] = target: STK25 (human) (UniProt O00506)
Chain of STK25 (human) (O00506 whole entry, looked up): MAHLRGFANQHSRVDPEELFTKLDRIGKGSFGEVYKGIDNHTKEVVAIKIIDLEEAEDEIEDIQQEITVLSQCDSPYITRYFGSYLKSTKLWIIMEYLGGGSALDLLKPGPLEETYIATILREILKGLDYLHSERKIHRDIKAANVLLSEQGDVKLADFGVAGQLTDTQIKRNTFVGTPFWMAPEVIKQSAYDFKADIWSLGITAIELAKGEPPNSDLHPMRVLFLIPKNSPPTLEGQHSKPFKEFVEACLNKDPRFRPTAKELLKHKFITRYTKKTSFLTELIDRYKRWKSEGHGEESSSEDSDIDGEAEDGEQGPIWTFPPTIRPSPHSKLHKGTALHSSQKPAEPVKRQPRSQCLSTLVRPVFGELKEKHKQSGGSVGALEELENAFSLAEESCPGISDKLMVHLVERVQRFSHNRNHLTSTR

[33] = target: DAPK3 (human) (UniProt O43293)
[34] = target: MAPK1 (human) (UniProt P28482)
[35] = target: BLK (human) (UniProt P51451)
[36] = target: NTRK3 (human) (UniProt Q16288)
Chain of NTRK3 (human) (Q16288 whole entry, looked up): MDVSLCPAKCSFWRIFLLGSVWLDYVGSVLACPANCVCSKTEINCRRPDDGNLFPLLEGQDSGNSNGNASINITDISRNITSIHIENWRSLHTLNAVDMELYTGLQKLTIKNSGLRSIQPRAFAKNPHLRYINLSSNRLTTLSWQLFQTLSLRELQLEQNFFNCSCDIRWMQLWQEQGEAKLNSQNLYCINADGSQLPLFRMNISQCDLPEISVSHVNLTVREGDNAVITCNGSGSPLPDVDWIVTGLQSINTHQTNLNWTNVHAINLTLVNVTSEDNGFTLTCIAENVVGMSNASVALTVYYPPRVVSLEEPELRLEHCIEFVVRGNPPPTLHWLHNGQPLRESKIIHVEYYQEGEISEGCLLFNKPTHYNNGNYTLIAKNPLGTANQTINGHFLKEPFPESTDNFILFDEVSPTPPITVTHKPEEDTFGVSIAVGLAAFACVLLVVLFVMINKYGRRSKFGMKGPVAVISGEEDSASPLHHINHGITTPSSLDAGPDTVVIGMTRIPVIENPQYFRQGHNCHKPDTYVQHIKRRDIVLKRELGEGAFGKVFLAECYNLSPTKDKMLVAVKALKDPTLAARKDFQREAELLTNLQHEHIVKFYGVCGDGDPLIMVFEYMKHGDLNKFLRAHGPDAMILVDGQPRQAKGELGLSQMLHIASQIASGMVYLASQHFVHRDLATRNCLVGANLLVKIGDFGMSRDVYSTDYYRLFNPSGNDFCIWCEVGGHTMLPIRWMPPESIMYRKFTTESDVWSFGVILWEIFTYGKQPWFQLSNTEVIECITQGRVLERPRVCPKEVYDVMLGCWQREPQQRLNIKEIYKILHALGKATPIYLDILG

[37] = target: CLK4 (human) (UniProt Q9HAZ1)
[38] = target: EGFR (human) (UniProt P00533)
[39] = target: EPHA5 (human) (UniProt P54756)
[40] = target: CLK2 (human) (UniProt P49760)
[41] = target: ABL1 (human) (UniProt P00519)

Chain of PRKAA2 (human) (P54646 whole entry, looked up): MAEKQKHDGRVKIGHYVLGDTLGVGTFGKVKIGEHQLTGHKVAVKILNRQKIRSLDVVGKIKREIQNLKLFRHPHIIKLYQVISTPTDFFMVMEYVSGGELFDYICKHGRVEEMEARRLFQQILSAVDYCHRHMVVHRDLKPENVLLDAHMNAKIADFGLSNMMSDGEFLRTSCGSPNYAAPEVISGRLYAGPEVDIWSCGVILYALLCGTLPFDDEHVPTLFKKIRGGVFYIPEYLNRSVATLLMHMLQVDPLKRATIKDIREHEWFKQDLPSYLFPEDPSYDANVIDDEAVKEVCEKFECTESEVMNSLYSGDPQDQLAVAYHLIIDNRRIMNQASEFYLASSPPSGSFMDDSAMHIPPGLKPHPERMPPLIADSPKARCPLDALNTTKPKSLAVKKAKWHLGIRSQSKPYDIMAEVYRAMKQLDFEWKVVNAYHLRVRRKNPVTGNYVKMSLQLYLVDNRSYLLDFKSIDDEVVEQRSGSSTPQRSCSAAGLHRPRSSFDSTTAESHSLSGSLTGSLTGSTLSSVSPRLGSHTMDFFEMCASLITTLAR

| kinase still bound, per cent of control [1] | kinase still bound, per cent of control [2] | kinase still bound, per cent of control [3] | kinase still bound, per cent of control [4] | kinase still bound, per cent of control [5] | kinase still bound, per cent of control [6] [%] | kinase still bound, per cent of control [7] | kinase still bound, per cent of control [8] | kinase still bound, per cent of control [9] | kinase still bound, per cent of control [10] | kinase still bound, per cent of control [11] | kinase still bound, per cent of control [12] | kinase still bound, per cent of control [13] | kinase still bound, per cent of control [14] | kinase still bound, per cent of control [15] | kinase still bound, per cent of control [16] | kinase still bound, per cent of control [17] | kinase still bound, per cent of control [18] | kinase still bound, per cent of control [19] | kinase still bound, per cent of control [20] | other results | SMILES |
| --- | --- | --- | --- | --- | --- | --- | --- | --- | --- | --- | --- | --- | --- | --- | --- | --- | --- | --- | --- | --- | --- |
| no effect (inactive) | no effect (inactive) | no effect (inactive) | no effect (inactive) | no effect (inactive) | 0 | no effect (inactive) | no effect (inactive) | no effect (inactive) | no effect (inactive) | no effect (inactive) | no effect (inactive) | no effect (inactive) | no effect (inactive) | no effect (inactive) | no effect (inactive) | no effect (inactive) | no effect (inactive) | no effect (inactive) | no effect (inactive) | kinase still bound, per cent of control [21]: no effect (inactive); kinase still bound, per cent of control [22]: no effect (inactive); kinase still bound, per cent of control [23]: no effect (inactive); kinase still bound, per cent of control [24]: no effect (inactive); kinase still bound, per cent of control [25]: no effect (inactive); kinase still bound, per cent of control [26]: no effect (inactive); kinase still bound, per cent of control [27]: no effect (inactive); kinase still bound, per cent of control [28]: no effect (inactive); kinase still bound, per cent of control [29]: no effect (inactive); kinase still bound, per cent of control [30]: no effect (inactive); kinase still bound, per cent of control [31]: no effect (inactive); kinase still bound, per cent of control [32]: no effect (inactive); kinase still bound, per cent of control [33]: no effect (inactive); kinase still bound, per cent of control [34]: no effect (inactive); kinase still bound, per cent of control [35]: no effect (inactive); kinase still bound, per cent of control [36]: no effect (inactive); kinase still bound, per cent of control [37]: no effect (inactive); kinase still bound, per cent of control [38]: no effect (inactive); kinase still bound, per cent of control [39]: no effect (inactive); kinase still bound, per cent of control [40]: no effect (inactive) | c1ccc(-c2n[nH]cc2-c2ccnc3ccccc23)nc1 |
| 1.5% | 1% | 0% | 0.1% | 0% | 2.4 | 0% | 0.85% | 10.8% | no effect (inactive) | 0.5% | no effect (inactive) | 0% | 0% | 0.1% | 17.2% | 0% | 10.8% | 0.5% | 0% | kinase still bound, per cent of control [21]: 2.6%; kinase still bound, per cent of control [22]: 0.1%; kinase still bound, per cent of control [41]: 0.6%; kinase still bound, per cent of control [23]: 0%; kinase still bound, per cent of control [24]: 0.1%; kinase still bound, per cent of control [25]: no effect (inactive); kinase still bound, per cent of control [27]: 5.8%; kinase still bound, per cent of control [28]: 7.2%; kinase still bound, per cent of control [29]: no effect (inactive); kinase still bound, per cent of control [30]: 1.4%; kinase still bound, per cent of control [31]: 0.1%; kinase still bound, per cent of control [32]: 0.4%; kinase still bound, per cent of control [33]: 2.1%; kinase still bound, per cent of control [34]: 14%; kinase still bound, per cent of control [35]: 0%; kinase still bound, per cent of control [36]: 0%; kinase still bound, per cent of control [37]: 0%; kinase still bound, per cent of control [38]: 21.2%; kinase still bound, per cent of control [39]: 0%; kinase still bound, per cent of control [40]: 0% | CCS(=O)(=O)Nc1ccc2c(c1)[C@H](/C(=N/c1ccc(CN3CCCCC3)cc1)c1ccccc1)C(=O)N2 |
